According to patent publication US8063220B2, “Sulfonyl-quinoline derivatives” (Richter Gedeon Nyrt., priority 2007, dated 2011):
pKi: −log10 of the molar value.

Key:
[1] = target: T1, rat mGluR5 (Rattus norvegicus, UniProt P31424); test: MGluR5 receptor binding test ([3H]-M-MPEP displacement, rat cerebro-cortical membrane preparation); settings: rat mGluR5, [3H]-M-MPEP 2 nM; read-out: mGlu5 Ki
T1 construct: Rat cerebro-cortical membrane preparation was used; from tissue; host or cells: rat cerebral cortex (membrane preparation)
Method: Rat cerebro-cortical membrane preparation was used to determine the binding characteristics of reference compounds and novel compounds to the rat mGluR5. The A18 cell line expressing hmGluR5a (purchased from Euroscreen) was used to determine binding characteristics of the chemical compounds to the human mGluR5a receptor. [3H]-M-MPEP (2 nM) was used as radioligand. The nonspecific binding was determined in the presence of 10 μM M-MPEP.

[2] = target: T2, rat mGluR1 (Rattus norvegicus, UniProt P23385); test: MGluR1 receptor binding test ([3H]R214127 displacement, rat cerebellar membrane preparation); settings: rat mGluR1, [3H]R214127 3 nM; read-out: mGlu1 Ki
T2 construct: rat cerebellar membrane preparation was used; from tissue; host or cells: rat cerebellum (membrane preparation)
Method: MGluR1 receptor binding tests were performed according to modified method of Lavreysen et al. (Mol. Pharm., 2003, 63, 1082). Based on the high homology between the human and rat mGluR1 receptors, rat cerebellar membrane preparation was used to determine the binding characteristics of reference compounds and novel compounds to the rat mGluR1. [3H]R214127 (3 nM) was used as radioligand and the nonspecific binding was determined in the presence of 1 μM of R214127.
IC-50 values were determined from displacement curves by nonlinear regression analysis and were converted to Ki values using the equation method of Cheng and Prusoff (Biochem. Pharmacol., 1973, 22, 3099).

T2 sequence (P23385 19-1199): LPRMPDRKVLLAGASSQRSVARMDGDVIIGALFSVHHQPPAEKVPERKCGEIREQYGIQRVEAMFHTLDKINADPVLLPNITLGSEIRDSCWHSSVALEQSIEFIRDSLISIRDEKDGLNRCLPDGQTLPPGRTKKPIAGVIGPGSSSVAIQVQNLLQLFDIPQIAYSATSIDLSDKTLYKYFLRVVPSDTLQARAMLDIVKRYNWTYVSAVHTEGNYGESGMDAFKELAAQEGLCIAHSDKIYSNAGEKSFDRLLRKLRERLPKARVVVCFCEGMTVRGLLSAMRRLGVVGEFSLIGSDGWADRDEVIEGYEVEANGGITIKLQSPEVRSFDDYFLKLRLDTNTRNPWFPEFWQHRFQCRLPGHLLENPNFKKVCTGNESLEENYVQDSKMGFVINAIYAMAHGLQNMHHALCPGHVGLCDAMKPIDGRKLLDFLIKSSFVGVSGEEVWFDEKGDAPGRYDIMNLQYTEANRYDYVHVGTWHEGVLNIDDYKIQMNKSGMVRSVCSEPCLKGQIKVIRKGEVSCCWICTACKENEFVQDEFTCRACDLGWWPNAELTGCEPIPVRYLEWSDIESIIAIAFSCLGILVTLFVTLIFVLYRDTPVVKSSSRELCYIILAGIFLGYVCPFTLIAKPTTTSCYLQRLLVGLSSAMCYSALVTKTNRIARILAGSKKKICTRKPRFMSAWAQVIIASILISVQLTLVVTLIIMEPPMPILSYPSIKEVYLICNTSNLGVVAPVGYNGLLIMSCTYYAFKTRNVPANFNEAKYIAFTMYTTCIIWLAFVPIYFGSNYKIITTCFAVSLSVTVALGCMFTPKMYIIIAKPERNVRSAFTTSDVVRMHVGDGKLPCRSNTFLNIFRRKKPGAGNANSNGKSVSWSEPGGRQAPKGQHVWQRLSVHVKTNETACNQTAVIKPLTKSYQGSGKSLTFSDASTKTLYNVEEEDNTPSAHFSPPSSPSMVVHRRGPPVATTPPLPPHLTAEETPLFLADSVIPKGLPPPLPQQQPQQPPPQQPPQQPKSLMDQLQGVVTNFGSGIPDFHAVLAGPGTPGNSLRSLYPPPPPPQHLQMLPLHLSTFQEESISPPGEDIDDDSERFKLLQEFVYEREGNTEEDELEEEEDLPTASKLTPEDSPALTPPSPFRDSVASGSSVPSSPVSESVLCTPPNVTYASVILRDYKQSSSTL
T1 sequence (P31424 21-1203): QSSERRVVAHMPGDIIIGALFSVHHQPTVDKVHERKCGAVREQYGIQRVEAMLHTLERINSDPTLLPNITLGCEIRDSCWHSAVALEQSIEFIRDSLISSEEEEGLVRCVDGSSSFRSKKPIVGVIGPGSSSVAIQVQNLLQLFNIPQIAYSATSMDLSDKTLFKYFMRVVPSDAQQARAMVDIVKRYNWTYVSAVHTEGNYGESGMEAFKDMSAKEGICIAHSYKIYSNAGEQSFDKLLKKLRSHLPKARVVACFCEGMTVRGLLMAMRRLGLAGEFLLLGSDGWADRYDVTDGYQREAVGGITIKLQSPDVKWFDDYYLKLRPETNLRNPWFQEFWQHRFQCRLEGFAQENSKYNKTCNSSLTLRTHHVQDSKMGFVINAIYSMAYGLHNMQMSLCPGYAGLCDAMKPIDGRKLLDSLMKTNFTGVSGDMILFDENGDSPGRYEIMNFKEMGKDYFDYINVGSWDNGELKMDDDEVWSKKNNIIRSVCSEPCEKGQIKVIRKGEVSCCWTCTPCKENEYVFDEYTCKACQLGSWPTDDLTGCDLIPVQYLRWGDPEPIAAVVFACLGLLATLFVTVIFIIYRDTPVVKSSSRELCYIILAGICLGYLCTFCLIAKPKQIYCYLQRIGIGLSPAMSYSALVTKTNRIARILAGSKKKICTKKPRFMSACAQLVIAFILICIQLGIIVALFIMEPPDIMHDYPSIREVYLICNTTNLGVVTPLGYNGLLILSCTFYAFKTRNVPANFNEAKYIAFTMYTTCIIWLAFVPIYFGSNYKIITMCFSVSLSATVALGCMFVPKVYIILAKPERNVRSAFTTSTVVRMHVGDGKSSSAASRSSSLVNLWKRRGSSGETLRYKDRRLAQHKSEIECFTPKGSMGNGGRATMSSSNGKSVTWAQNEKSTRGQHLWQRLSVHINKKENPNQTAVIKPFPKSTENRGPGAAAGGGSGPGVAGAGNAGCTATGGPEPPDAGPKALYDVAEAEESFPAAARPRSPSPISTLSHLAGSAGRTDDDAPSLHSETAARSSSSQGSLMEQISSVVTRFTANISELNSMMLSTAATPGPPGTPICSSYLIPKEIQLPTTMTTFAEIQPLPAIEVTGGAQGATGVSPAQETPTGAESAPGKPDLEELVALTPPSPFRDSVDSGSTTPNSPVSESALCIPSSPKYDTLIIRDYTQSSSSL

| SMILES | pKi [1] | pKi [2] |
| --- | --- | --- |
| COc1ccc(-c2c(S(=O)(=O)c3ccc(F)cc3)cnc3ccc(F)cc23)cc1 [Compound 27] | < 6.30 | < 6.30 |
| O=S(=O)(c1ccc(F)cc1)c1cnc2ccc(F)cc2c1-c1ccc(F)cc1 [Compound 28] | < 6.30 | < 6.30 |
| COc1ccc(S(=O)(=O)c2cnc3ccc(F)cc3c2-c2ccc(Cl)cc2)cc1 [Compound 29] | > 6.70 | < 6.30 |
| COc1ccc(S(=O)(=O)c2cnc3ccc(F)cc3c2-c2cccc(F)c2)cc1 [Compound 30] | 6.30 to 6.70 | < 6.30 |
| O=S(=O)(c1ccc(Cl)cc1)c1cnc2ccc(F)cc2c1-c1ccc(F)cc1 [Compound 31] | < 6.30 | < 6.30 |
| O=S(=O)(c1cccc(F)c1)c1cnc2ccc(F)cc2c1-c1ccc(Cl)cc1 [Compound 32] | < 6.30 | < 6.30 |
| Cc1ccc(S(=O)(=O)c2cnc3ccc(F)cc3c2-c2ccc(Cl)cc2)cc1C [Compound 33] | > 6.70 | < 6.30 |
| COc1cccc(-c2c(S(=O)(=O)c3cccc(Cl)c3)cnc3ccc(F)cc23)c1 [Compound 34] | < 6.30 | < 6.30 |
| O=S(=O)(c1cc(F)cc(F)c1)c1cnc2cc(F)ccc2c1-c1ccc(Cl)cc1 [Compound 35, 4-(4-chloro-phenyl)-3-(3,5-difluoro-benzenesulfonyl)-7-fluoro-quinoline] | > 6.70 | < 6.30 |
| O=S(=O)(c1cc(F)cc(F)c1)c1cnc2cc(F)ccc2c1-c1ccc(F)cc1 [Compound 36] | > 6.70 | < 6.30 |
| O=S(=O)(c1ccc(F)cc1)c1cnc2cc(F)ccc2c1-c1ccc(F)cc1 [Compound 40] | > 6.70 | < 6.30 |
| O=S(=O)(c1cccc(F)c1)c1cnc2cc(F)ccc2c1-c1ccc(Cl)cc1 [Compound 41] | > 6.70 | < 6.30 |
| COc1ccc(-c2c(S(=O)(=O)c3cccc(F)c3)cnc3cc(F)ccc23)cc1 [Compound 42] | 6.30 to 6.70 | < 6.30 |
| COc1cccc(S(=O)(=O)c2cnc3cc(F)ccc3c2-c2cccc(Cl)c2)c1 [Compound 43] | > 6.70 | < 6.30 |
| COc1cccc(S(=O)(=O)c2cnc3cc(F)ccc3c2-c2ccc(F)cc2)c1 [Compound 44] | > 6.70 | < 6.30 |
| Cc1ccc(S(=O)(=O)c2cnc3cc(F)ccc3c2-c2ccc(Cl)cc2)cc1C [Compound 45] | > 6.70 | < 6.30 |
| Cc1ccc(S(=O)(=O)c2cnc3cc(F)ccc3c2-c2ccc(F)cc2)cc1C [Compound 46] | > 6.70 | < 6.30 |
| COc1ccc(S(=O)(=O)c2cnc3cc(F)ccc3c2-c2cccc(F)c2)cc1Cl [Compound 48] | > 6.70 | < 6.30 |
| COc1ccc(S(=O)(=O)c2cnc3cc(F)ccc3c2-c2ccc(F)cc2)cc1Cl [Compound 49] | > 6.70 | < 6.30 |
| O=S(=O)(c1cc(F)cc(F)c1)c1cnc2c(F)cccc2c1-c1cccc(F)c1 [Compound 51] | > 6.70 | < 6.30 |
| COc1ccc(-c2c(S(=O)(=O)c3ccc(F)cc3)cnc3c(F)cccc23)cc1 [Compound 52] | > 6.70 | < 6.30 |
| COc1ccc(S(=O)(=O)c2cnc3c(F)cccc3c2-c2cccc(Cl)c2)cc1 [Compound 53, 4-(3-chloro-phenyl)-8-fluoro-3-(4-methoxy-benzenesulfonyl)-quinoline] | > 6.70 | < 6.30 |
| COc1ccc(S(=O)(=O)c2cnc3c(F)cccc3c2-c2cccc(F)c2)cc1 [Compound 55] | > 6.70 | < 6.30 |
| COc1ccc(-c2c(S(=O)(=O)c3ccc(OC)cc3)cnc3c(F)cccc23)cc1 [Compound 56] | > 6.70 | < 6.30 |
| COc1ccc(S(=O)(=O)c2cnc3c(F)cccc3c2-c2cccc(OC)c2)cc1 [Compound 57] | > 6.70 | < 6.30 |

Results, then the compound that gave them:

| pKi [1] | pKi [2] | SMILES |
| --- | --- | --- |
| > 6.70 | 6.30 to 6.70 | Cc1ccc(S(=O)(=O)c2cnc3ccccc3c2-c2ccc(Cl)cc2)cc1 [Compound 1, 4-(4-chloro-phenyl)-3-(4-methyl-benzenesulfonyl)-quinoline] |
| < 6.30 | < 6.30 | O=S(=O)(c1ccc(F)cc1)c1cnc2ccc(Cl)cc2c1-c1ccc(Cl)cc1 [Compound 2] |
| < 6.30 | < 6.30 | O=S(=O)(c1ccc(F)cc1)c1cnc2ccc(Cl)cc2c1-c1cccc(Cl)c1 [Compound 3] |
| > 6.70 | 6.30 to 6.70 | O=S(=O)(c1ccc(Cl)cc1)c1cnc2cc(Cl)ccc2c1-c1ccc(F)cc1 [Compound 4, 7-chloro-3-(4-chloro-benzenesulfonyl)-4-(4-fluoro-phenyl)-quinoline] |
| 6.30 to 6.70 | < 6.30 | O=S(=O)(c1ccc(Cl)cc1)c1cnc2c(Cl)cccc2c1-c1ccc(Cl)cc1 [Compound 5] |
| 6.30 to 6.70 | < 6.30 | O=S(=O)(c1ccc(Cl)cc1)c1cnc2c(Cl)cccc2c1-c1cccc(Cl)c1 [Compound 6] |
| > 6.70 | > 6.70 | O=S(=O)(c1ccc(Cl)c(Cl)c1)c1cnc2c(Cl)cccc2c1-c1cccc(Cl)c1 [Compound 7] |
| < 6.30 | < 6.30 | O=S(=O)(c1ccc(Cl)cc1)c1cnc2ccc(F)cc2c1-c1cccc(Cl)c1 [Compound 8] |
| > 6.70 | 6.30 to 6.70 | O=S(=O)(c1ccc(F)cc1)c1cnc2cc(F)ccc2c1-c1cccc(F)c1 [Compound 9, 7-fluoro-3-(4-fluoro-benzenesulfonyl)-4-(3-fluoro-phenyl)-quinoline] |
| 6.30 to 6.70 | < 6.30 | COc1ccc(-c2c(S(=O)(=O)c3ccc(F)cc3)cnc3cc(F)ccc23)cc1 [Compound 10] |
| > 6.70 | < 6.30 | COc1ccc(S(=O)(=O)c2cnc3cc(F)ccc3c2-c2ccc(Cl)cc2)cc1 [Compound 11] |
| 6.30 to 6.70 | < 6.30 | COc1ccc(S(=O)(=O)c2cnc3cc(F)ccc3c2-c2cccc(F)c2)cc1 [Compound 12] |
| > 6.70 | < 6.30 | COc1ccc(-c2c(S(=O)(=O)c3ccc(OC)cc3)cnc3cc(F)ccc23)cc1 [Compound 13] |
| 6.30 to 6.70 | < 6.30 | COc1ccc(S(=O)(=O)c2cnc3cc(F)ccc3c2-c2ccc(F)cc2)cc1 [Compound 14] |
| > 6.70 | 6.30 to 6.70 | O=S(=O)(c1cccc(F)c1)c1cnc2cc(F)ccc2c1-c1cccc(F)c1 [Compound 15] |
| > 6.70 | < 6.30 | O=S(=O)(c1cccc(F)c1)c1cnc2cc(F)ccc2c1-c1ccc(F)cc1 [Compound 16] |
| > 6.70 | < 6.30 | Cc1ccc(S(=O)(=O)c2cnc3cc(F)ccc3c2-c2cccc(Cl)c2)cc1C [Compound 17, 4-(3-chloro-phenyl)-3-(3,4-dimethyl-benzenesulfonyl)-7-fluoro-quinoline] |

| pKi [1] | pKi [2] | SMILES |
| --- | --- | --- |
| > 6.70 | < 6.30 | Cc1ccc(S(=O)(=O)c2cnc3cc(F)ccc3c2-c2cccc(F)c2)cc1C [Compound 18] |
| > 6.70 | < 6.30 | COc1cccc(-c2c(S(=O)(=O)c3ccc(C)c(C)c3)cnc3cc(F)ccc23)c1 [Compound 19] |
| > 6.70 | > 6.70 | O=S(=O)(c1ccc(F)cc1)c1cnc2c(F)cccc2c1-c1cccc(Cl)c1 [Compound 20] |
| > 6.70 | 6.30 to 6.70 | O=S(=O)(c1ccc(F)cc1)c1cnc2c(F)cccc2c1-c1ccc(Cl)cc1 [Compound 21] |
| > 6.70 | 6.30 to 6.70 | O=S(=O)(c1ccc(F)cc1)c1cnc2c(F)cccc2c1-c1cccc(F)c1 [Compound 22] |
| > 6.70 | < 6.30 | COc1cccc(-c2c(S(=O)(=O)c3ccc(F)cc3)cnc3c(F)cccc23)c1 [Compound 23] |
| < 6.30 | < 6.30 | O=S(=O)(c1ccc(F)cc1)c1cnc2ccc(F)cc2c1-c1cccc(Cl)c1 [Compound 24] |
| 6.30 to 6.70 | < 6.30 | O=S(=O)(c1ccc(F)cc1)c1cnc2ccc(F)cc2c1-c1ccc(Cl)cc1 [Compound 25] |
| 6.30 to 6.70 | < 6.30 | O=S(=O)(c1ccc(F)cc1)c1cnc2ccc(F)cc2c1-c1cccc(F)c1 [Compound 26] |
| > 6.70 | 6.30 to 6.70 | N#Cc1cccc(S(=O)(=O)c2cnc3cc(F)ccc3c2-c2ccc(Cl)cc2)c1 [Compound 37] |
| > 6.70 | 6.30 to 6.70 | N#Cc1cccc(S(=O)(=O)c2cnc3cc(F)ccc3c2-c2cccc(F)c2)c1 [Compound 38] |
| > 6.70 | 6.30 to 6.70 | N#Cc1cccc(S(=O)(=O)c2cnc3cc(F)ccc3c2-c2ccc(F)cc2)c1 [Compound 39] |
| > 6.70 | 6.30 to 6.70 | COc1ccc(S(=O)(=O)c2cnc3cc(F)ccc3c2-c2cccc(Cl)c2)cc1Cl [Compound 47] |
| > 6.70 | > 6.70 | O=S(=O)(c1cc(Cl)cc(Cl)c1)c1cnc2c(F)cccc2c1-c1ccc(F)cc1 [Compound 50] |
| > 6.70 | > 6.70 | COc1ccc(S(=O)(=O)c2cnc3c(F)cccc3c2-c2ccc(Cl)cc2)cc1 [Compound 54] |
| > 6.70 | 6.30 to 6.70 | O=S(=O)(c1cccc(F)c1)c1cnc2c(F)cccc2c1-c1cccc(Cl)c1 [Compound 58] |
| – | 6.30 to 6.70 | O=S(=O)(c1cc(Cl)cc(Cl)c1)c1cnc2cc(F)ccc2c1-c1ccc(F)cc1 [Compound 83] |
